# Measured values taken from PubChem BioAssay (NCI).
#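 The compound was tested at five concentrations on cells cultured in 96-well plates, with a 48-hour exposure period. GI50 marks 50% less growth. TGI: concentration producing complete growth inhibition.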
# Columns and labels:
# Experiment in all cases: inhibition of tumour cell growth, NCI panel, 48 h
# [1] = test system: SK-MEL-28 melanoma
# [2] = test system: MDA-MB-231 breast
# [3] = test system: MCF7 breast
# [4] = test system: HOP-92 NSCLC
# [5] = test system: MOLT-4 leukemia
# [6] = test system: NCI-H522 lung
# [7] = test system: NCI-H23 lung
# [8] = test system: MDA-MB-435
# [9] = test system: CAKI-1 renal
# [10] = test system: UACC-62 melanoma
# [11] = test system: OVCAR-8 ovarian
# [12] = test system: CCRF-CEM leukemia
# [13] = test system: A498 renal
# [14] = test system: HOP-62 NSCLC
# [15] = test system: KM12 colon
# [16] = test system: EKVX NSCLC
# [17] = test system: PC-3 prostate
# [18] = test system: UACC-257 melanoma
# [19] = test system: RPMI-8226 leukemia
# [20] = test system: SNB-75 CNS
# [21] = test system: IGROV1 ovarian
# [22] = test system: T-47D breast
# [23] = test system: HCT-116 colon
# [24] = test system: OVCAR-4 ovarian
# [25] = test system: SF-539 CNS
# [26] = test system: HCC-2998 colon
# [27] = test system: ACHN renal
# [28] = test system: HT29 colon
# [29] = test system: K-562 leukemia
# [30] = test system: M14 melanoma
# [31] = test system: DU-145 prostate
# [32] = test system: HCT-15 colon
# [33] = test system: NCI-H460 lung
# [34] = test system: U251 CNS
# [35] = test system: LOX IMVI melanoma
# [36] = test system: NCI-H226 lung
# [37] = test system: NCI/ADR-RES ovarian
# [38] = test system: A549 NSCLC
# [39] = test system: SF-268 CNS
# [40] = test system: COLO 205 colon
# [41] = test system: 786-0 renal
# [42] = test system: SW-620 colon
# [43] = test system: UO-31 renal
# [44] = test system: SNB-19 CNS
# [45] = test system: OVCAR-5 ovarian
# [46] = test system: SN12C renal
# [47] = test system: OVCAR-3 ovarian
# [48] = test system: SK-OV-3 ovarian
# [49] = test system: MALME-3M melanoma
# [50] = test system: TK-10 renal
# [51] = test system: SK-MEL-2 melanoma
# [52] = test system: HL-60(TB) leukemia
# [53] = test system: RXF 393 renal
# [54] = test system: SK-MEL-5 melanoma
# [55] = test system: BT-549 breast
# [56] = test system: SR leukemia
# [57] = test system: HS 578T breast
# [58] = test system: SF-295 CNS
smiles,measurement,setting,value
C=CCSc1n[nH]c(-c2cccs2)n1,GI50,[1],> 100 µM
same,TGI,[1],> 100 µM
same,GI50,[2],> 100 µM
same,TGI,[2],> 100 µM
same,GI50,[3],> 100 µM
same,TGI,[3],> 100 µM
same,GI50,[4],> 100 µM
same,TGI,[4],> 100 µM
same,GI50,[5],> 100 µM
same,TGI,[5],> 100 µM
same,GI50,[6],> 100 µM
same,TGI,[6],> 100 µM
same,GI50,[7],> 100 µM
same,TGI,[7],> 100 µM
same,GI50,[8],> 100 µM
same,TGI,[8],> 100 µM
same,GI50,[9],> 100 µM
same,TGI,[9],> 100 µM
same,GI50,[10],> 100 µM
same,TGI,[10],> 100 µM
same,GI50,[11],> 100 µM
same,TGI,[11],> 100 µM
same,GI50,[12],> 100 µM
same,TGI,[12],> 100 µM
same,GI50,[13],> 100 µM
same,TGI,[13],> 100 µM
same,GI50,[14],> 100 µM
same,TGI,[14],> 100 µM
same,GI50,[15],> 100 µM
same,TGI,[15],> 100 µM
same,GI50,[16],> 100 µM
same,TGI,[16],> 100 µM
same,GI50,[17],> 100 µM
same,TGI,[17],> 100 µM
same,GI50,[18],> 100 µM
same,TGI,[18],> 100 µM
same,GI50,[19],> 100 µM
same,TGI,[19],> 100 µM
same,GI50,[20],> 100 µM
same,TGI,[20],> 100 µM
same,GI50,[21],> 100 µM
same,TGI,[21],> 100 µM
same,GI50,[22],> 100 µM
same,TGI,[22],> 100 µM
same,GI50,[23],> 100 µM
same,TGI,[23],> 100 µM
same,GI50,[24],> 100 µM
same,TGI,[24],> 100 µM
same,GI50,[25],> 100 µM
same,TGI,[25],> 100 µM
same,GI50,[26],> 100 µM
same,TGI,[26],> 100 µM
same,GI50,[27],> 100 µM
same,TGI,[27],> 100 µM
same,GI50,[28],> 100 µM
same,TGI,[28],> 100 µM
same,GI50,[29],> 100 µM
same,TGI,[29],> 100 µM
same,GI50,[30],> 100 µM
same,TGI,[30],> 100 µM
same,GI50,[31],> 100 µM
same,TGI,[31],> 100 µM
same,GI50,[32],> 100 µM
same,TGI,[32],> 100 µM
same,GI50,[33],> 100 µM
same,TGI,[33],> 100 µM
same,GI50,[34],> 100 µM
same,TGI,[34],> 100 µM
same,GI50,[35],> 100 µM
same,TGI,[35],> 100 µM
same,GI50,[36],> 100 µM
same,TGI,[36],> 100 µM
same,GI50,[37],> 100 µM
same,TGI,[37],> 100 µM
same,GI50,[38],> 100 µM
same,TGI,[38],> 100 µM
same,GI50,[39],> 100 µM
same,TGI,[39],> 100 µM
same,GI50,[40],> 100 µM
same,TGI,[40],> 100 µM
same,GI50,[41],> 100 µM
same,TGI,[41],> 100 µM
same,GI50,[42],> 100 µM
same,TGI,[42],> 100 µM
same,GI50,[43],> 100 µM
same,TGI,[43],> 100 µM
same,GI50,[44],> 100 µM
same,TGI,[44],> 100 µM
same,GI50,[45],> 100 µM
same,TGI,[45],> 100 µM
same,GI50,[46],> 100 µM
same,TGI,[46],> 100 µM
same,GI50,[47],> 100 µM
same,TGI,[47],> 100 µM
same,GI50,[48],> 100 µM
same,TGI,[48],> 100 µM
same,GI50,[49],> 100 µM
same,TGI,[49],> 100 µM
same,GI50,[50],> 100 µM
same,TGI,[50],> 100 µM
same,GI50,[51],> 100 µM
same,TGI,[51],> 100 µM
same,GI50,[52],> 100 µM
same,TGI,[52],> 100 µM
same,GI50,[53],> 100 µM
same,TGI,[53],> 100 µM
same,GI50,[54],> 100 µM
same,TGI,[54],> 100 µM
same,GI50,[55],> 100 µM
same,TGI,[55],> 100 µM
same,GI50,[56],> 100 µM
same,TGI,[56],> 100 µM
same,GI50,[57],> 100 µM
same,TGI,[57],> 100 µM
same,GI50,[58],> 100 µM
same,TGI,[58],> 100 µM
CCOC(=O)c1c(C)c2c(n1C)CSc1cc(S(=O)(=O)c3ccccc3)c(=O)[nH]c1-2,GI50,[1],37.2 µM
same,TGI,[1],> 100 µM
same,GI50,[2],24.5 µM
same,TGI,[2],> 100 µM
same,GI50,[3],19.3 µM
same,TGI,[3],> 100 µM
same,GI50,[4],1.11 µM
same,TGI,[4],28.5 µM
same,GI50,[5],11.2 µM
same,TGI,[5],98.6 µM
same,GI50,[6],25.4 µM
same,TGI,[6],> 100 µM
same,GI50,[7],28.6 µM
same,TGI,[7],> 100 µM
same,GI50,[8],30.8 µM
same,TGI,[8],> 100 µM
same,GI50,[9],21.1 µM
same,TGI,[9],> 100 µM
same,GI50,[10],14.2 µM
same,TGI,[10],69.1 µM
same,GI50,[11],36.7 µM
same,TGI,[11],> 100 µM
same,GI50,[12],27.5 µM
same,TGI,[12],> 100 µM
same,GI50,[14],31.5 µM
same,TGI,[14],89.9 µM
same,GI50,[15],28.8 µM
same,TGI,[15],> 100 µM
same,GI50,[16],14.6 µM
same,TGI,[16],74.9 µM
same,GI50,[17],14 µM
same,TGI,[17],> 100 µM
same,GI50,[18],34.5 µM
same,TGI,[18],> 100 µM
same,GI50,[19],14.8 µM
same,TGI,[19],> 100 µM
same,GI50,[20],42.7 µM
same,TGI,[20],> 100 µM
same,GI50,[21],16.7 µM
same,TGI,[21],> 100 µM
same,GI50,[22],10.5 µM
same,TGI,[22],74.7 µM
same,GI50,[23],22.7 µM
same,TGI,[23],86.9 µM
same,GI50,[24],27.8 µM
same,TGI,[24],> 100 µM
same,GI50,[25],24.5 µM
same,TGI,[25],> 100 µM
same,GI50,[26],35.2 µM
same,TGI,[26],> 100 µM
same,GI50,[27],26.3 µM
same,TGI,[27],> 100 µM
same,GI50,[28],16.3 µM
same,TGI,[28],34.5 µM
same,GI50,[29],14.6 µM
same,TGI,[29],> 100 µM
same,GI50,[30],27.9 µM
same,TGI,[30],77.7 µM
same,GI50,[31],23.1 µM
same,TGI,[31],> 100 µM
same,GI50,[32],25.8 µM
same,TGI,[32],> 100 µM
same,GI50,[33],25.7 µM
same,TGI,[33],> 100 µM
same,GI50,[34],28.4 µM
same,TGI,[34],> 100 µM
same,GI50,[35],24.1 µM
same,TGI,[35],> 100 µM
same,GI50,[36],23.9 µM
same,TGI,[36],> 100 µM
same,GI50,[37],22.6 µM
same,TGI,[37],> 100 µM
same,GI50,[38],30.2 µM
same,TGI,[38],> 100 µM
same,GI50,[39],27.8 µM
same,TGI,[39],> 100 µM
same,GI50,[40],14.3 µM
same,TGI,[40],36.3 µM
same,GI50,[41],35.1 µM
same,TGI,[41],> 100 µM
same,GI50,[42],35.1 µM
same,TGI,[42],> 100 µM
same,GI50,[43],17.4 µM
same,TGI,[43],> 100 µM
same,GI50,[44],26.9 µM
same,TGI,[44],> 100 µM
same,GI50,[45],45.6 µM
same,TGI,[45],> 100 µM
same,GI50,[46],27.6 µM
same,TGI,[46],> 100 µM
same,GI50,[47],17.1 µM
same,TGI,[47],43.6 µM
same,GI50,[48],28.9 µM
same,TGI,[48],> 100 µM
same,GI50,[49],35.1 µM
same,TGI,[49],> 100 µM
same,GI50,[50],34.4 µM
same,TGI,[50],> 100 µM
same,GI50,[51],36.2 µM
same,TGI,[51],> 100 µM
same,GI50,[52],25.2 µM
same,TGI,[52],> 100 µM
same,GI50,[53],44.4 µM
same,TGI,[53],> 100 µM
same,GI50,[54],13.2 µM
same,TGI,[54],29.6 µM
same,GI50,[55],21.1 µM
same,TGI,[55],> 100 µM
same,GI50,[56],29.3 µM
same,TGI,[56],> 100 µM
same,GI50,[57],40.1 µM
same,TGI,[57],> 100 µM
same,GI50,[58],14 µM
same,TGI,[58],61.9 µM
